From US5352608A (priority 1992, dated 1994)
Entries after “also recorded” stand apart in the source; their conditions may differ.

What was measured:
[1] = tested on: tellurite reductase activity, R. sphaeroides PUHA1; experiment: TeO3^2- -dependent FADH2 oxidation in subcellular fractions; format: biochemical, Rhodobacter sphaeroides; conditions: 100 μg/ml K2 TeO3
[2] = tested on: Rhodocyclus gelatinosus str-1; experiment: Intrinsic HLR to TeO3^2- (MIC); format: cell-based
Proteobacteria = experiment: Intrinsic HLR to tellurite, comparison across strains; format: cell-based; conditions: aerobic vs photosynthetic; exception R. gelatinosus
Rhodospirillum rubrum Ha = experiment: Intrinsic HLR to TeO3^2- (MIC); format: cell-based
[3] = tested on: Rhodopseudomonas viridis F; experiment: Intrinsic HLR to TeO3^2- (MIC); format: cell-based
[4] = tested on: Rhodobacter capsulatus B10; experiment: Intrinsic HLR to TeO3^2- (MIC); format: cell-based
R. sphaeroides 2.4.1 [5] = format: cell-based, Rhodobacter sphaeroides
[6] = tested on: tellurite reductase activity, R. sphaeroides 2.4.1; experiment: TeO3^2- -dependent FADH2 oxidation in subcellular fractions; format: biochemical, Rhodobacter sphaeroides; conditions: for FADH2 oxidation: 100 μg/ml K2 TeO3
[7] = tested on: tellurite reductase activity, R. sphaeroides PRKA^- B^-; experiment: as above; format: biochemical, Rhodobacter sphaeroides; conditions: 100 μg/ml K2 TeO3
R. sphaeroides 2.4.1 [8] = experiment: Hydrogen evolution from oxyanion reduction; format: cell-based, Rhodobacter sphaeroides

Compound: O=[Te]([O-])[O-].[K+].[K+] [K2 TeO3]
- FADH2 oxidation ([1]; cytoplasm): 37 nmol/min/mg
- FADH2 oxidation ([1]; membrane): 28 nmol/min/mg
- FADH2 oxidation ([1]; periplasm): 3 nmol/min/mg
- Resistance to tellurite in words [2]: low resistance
- MIC K2 TeO3 ([2]; aerobic, minimal medium): 5 µg/mL
- MIC K2 TeO3 ([2]; photosynthetic, 10 W/m^2): 10 µg/mL
- MIC increase, cells grown aerobically (Proteobacteria): approximately 50%
- Resistance to tellurite in words (Rhodospirillum rubrum Ha): low resistance
- MIC K2 TeO3 (Rhodospirillum rubrum Ha; aerobic, minimal medium): 20 µg/mL
- MIC K2 TeO3 (Rhodospirillum rubrum Ha; photosynthetic, 10 W/m^2): 10 µg/mL
- MIC K2 TeO3 ([3]; aerobic, minimal medium): 80 µg/mL
- MIC K2 TeO3 ([3]; photosynthetic, 10 W/m^2): 50 µg/mL
- Resistance in words ([4]; aerobic): intrinsic high level resistance
- MIC K2 TeO3 ([4]; aerobic, minimal medium): 800 µg/mL
- MIC relative to E. coli ([4]; aerobic, tellurite): at least 80 times
- MIC K2 TeO3 ([4]; photosynthetic, 10 W/m^2): 500 µg/mL
- Appearance of cells / metal deposit (R. sphaeroides 2.4.1 [5]): intracellular accumulation of a dense metal deposit; also recorded: produced a black deposit which did not diffuse into the medium
- Gas evolution (R. sphaeroides 2.4.1 [5]): +++ +
- Gas evolution in words (R. sphaeroides 2.4.1 [5]): Copious gas evolution
- FADH2 oxidation ([6]; cytoplasm): 60 nmol/min/mg
- FADH2 oxidation ([6]; membrane): 300 nmol/min/mg
- FADH2 oxidation ([6]; periplasm): 1 nmol/min/mg
- Reductase activity in words ([6]; periplasmic and cytoplasmic fractions of all strains): Negligible reductase activity
- FADH2 oxidation ([7]; membrane): 200 nmol/min/mg
- FADH2 oxidation ([7]; periplasm): 3 nmol/min/mg
- Gas evolved (R. sphaeroides 2.4.1 [8]; 1 atm, 303° K., major component H2): 8.37 mmol
- Water displaced from the gas collection vessel (R. sphaeroides 2.4.1 [8]; culture grown in presence of TeO3^2-): 208 mL
- H2 evolved per mmole of Te^o deposited (R. sphaeroides 2.4.1 [8]; per mmole Te^o): approximately 11.5 mmoles
